This passage reports mutagenic call results from PubChem BioAssay AID1259407 (Chemical Carcinogenesis Research Information System (CCRIS), 2018).

The source made the active and inactive calls. How the calls were made is not given here.

The data set deals with CCRIS mutagenicity, Ames/micronucleus/aberration tests. The experiment in a line: CCRIS mutagenicity studies.
[1] abbreviates: Test System: AMES SALMONELLA TYPHIMURIUM, Strain/Indicator: TA98, Metabolic Activation: NONE, Method: PREINCUBATION
Where [2] appears, read: Test System: AMES SALMONELLA TYPHIMURIUM, Strain/Indicator: TA98, Metabolic Activation: NONE, Method: STANDARD PLATE.
Setting [3] is: Test System: AMES SALMONELLA TYPHIMURIUM, Strain/Indicator: TA98, Metabolic Activation: RAT, LIVER, S-9, AROCLOR 1254, Method: STANDARD PLATE.
Where [4] appears, read: Test System: AMES SALMONELLA TYPHIMURIUM, Strain/Indicator: TA100, Metabolic Activation: NONE, Method: PREINCUBATION
[5] abbreviates: Test System: AMES SALMONELLA TYPHIMURIUM, Strain/Indicator: TA100, Metabolic Activation: NONE, Method: STANDARD PLATE.
Setting [6] is: Test System: AMES SALMONELLA TYPHIMURIUM, Strain/Indicator: TA100, Metabolic Activation: RAT, LIVER, S-9, AROCLOR 1254, Method: STANDARD PLATE.
Setting [7] is: Test System: AMES SALMONELLA TYPHIMURIUM, Strain/Indicator: TA1535, Metabolic Activation: NONE, Method: STANDARD PLATE.
The mark [8] stands for this setting: Test System: AMES SALMONELLA TYPHIMURIUM, Strain/Indicator: TA1535, Metabolic Activation: RAT, LIVER, S-9, AROCLOR 1254, Method: STANDARD PLATE.
Where [9] appears, read: Test System: AMES SALMONELLA TYPHIMURIUM, Strain/Indicator: TA1537, Metabolic Activation: NONE, Method: STANDARD PLATE.
[10] abbreviates: Test System: AMES SALMONELLA TYPHIMURIUM, Strain/Indicator: TA1537, Metabolic Activation: RAT, LIVER, S-9, AROCLOR 1254, Method: STANDARD PLATE.

Take `O=C(O)CNCP(=O)(O)O`: the mutagenic call (End Point: IN VITRO MICRONUCLEUS, Test System: BOVINE LYMPHOCYTES, Metabolic Activation: NONE) was “inactive; negative”; the mutagenic call (End Point: IN VIVO CHROMOSOMAL ABERRATIONS, Test System: BONE MARROW ERYTHROCYTES, Species: RABBIT, Strain/Sex: NEW ZEALAND/MALE, Route: DRINKING WATER) was “active; positive (structural changes and ploidy)”; the mutagenic call (End Point: IN VIVO MICRONUCLEUS, Test System: BONE MARROW POLYCHROMATIC ERYTHROCYTES, Species: MOUSE, Strain/Sex: SWISS/MALE, FEMALE, Route: IP 2X IN AQUEOUS SUSPENSION WITHIN 24 HR) is “inactive; negative”; the mutagenic call (End Point: In vitro chromosomal aberrations, Test System: Bovine peripheral lymphocytes, Metabolic Activation: None) is “inactive; negative”; the mutagenic call (End Point: In vivo micronucleus, Test System: Bone marrow erythrocytes, Species: Mouse, Strain/Sex: Balb C/Male, female, Route: Intraperitoneal injection) is “active; positive (highest dose only)”; the mutagenic call (Test System: AMES SALMONELLA TYPHIMURIUM, Strain/Indicator: TA97, Metabolic Activation: HAMSTER, LIVER, S-9, AROCLOR 1254 (10%), Method: PREINCUBATION) was “inactive; negative”. The mutagenic call is, setting by setting: (Test System: AMES SALMONELLA TYPHIMURIUM, Strain/Indicator: TA97, Metabolic Activation: HAMSTER, LIVER, S-9, AROCLOR 1254 (30%), Method: PREINCUBATION) “inactive; negative”; (Test System: AMES SALMONELLA TYPHIMURIUM, Strain/Indicator: TA97, Metabolic Activation: NONE, Method: PREINCUBATION) “inactive; negative”; (Test System: AMES SALMONELLA TYPHIMURIUM, Strain/Indicator: TA97, Metabolic Activation: RAT, LIVER, S-9, AROCLOR 1254 (10%), Method: PREINCUBATION) “inactive; negative”; (Test System: AMES SALMONELLA TYPHIMURIUM, Strain/Indicator: TA97, Metabolic Activation: RAT, LIVER, S-9, AROCLOR 1254 (30%), Method: PREINCUBATION) “inactive; negative”; (Test System: AMES SALMONELLA TYPHIMURIUM, Strain/Indicator: TA98, Metabolic Activation: HAMSTER, LIVER, S-9, AROCLOR 1254 (10%), Method: PREINCUBATION) “inactive; negative”; (Test System: AMES SALMONELLA TYPHIMURIUM, Strain/Indicator: TA98, Metabolic Activation: HAMSTER, LIVER, S-9, AROCLOR 1254 (30%), Method: PREINCUBATION) “inactive; negative”. The mutagenic call under setting [1] is “inactive; negative”; the mutagenic call under setting [2] is “inactive; negative”; the mutagenic call (Test System: AMES SALMONELLA TYPHIMURIUM, Strain/Indicator: TA98, Metabolic Activation: RAT, LIVER, S-9, AROCLOR 1254 (10%), Method: PREINCUBATION) is “inactive; negative”; the mutagenic call (Test System: AMES SALMONELLA TYPHIMURIUM, Strain/Indicator: TA98, Metabolic Activation: RAT, LIVER, S-9, AROCLOR 1254 (30%), Method: PREINCUBATION) is “inactive; negative”; the mutagenic call under setting [3] was “inactive; negative”; the mutagenic call (Test System: AMES SALMONELLA TYPHIMURIUM, Strain/Indicator: TA98, Metabolic Activation: S-9, AROCLOR 1254, Method: STANDARD PLATE) was “inactive; negative”. The mutagenic call by setting is: (Test System: AMES SALMONELLA TYPHIMURIUM, Strain/Indicator: TA100, Metabolic Activation: HAMSTER, LIVER, S-9, AROCLOR 1254 (10%), Method: PREINCUBATION) “inactive; negative”; (Test System: AMES SALMONELLA TYPHIMURIUM, Strain/Indicator: TA100, Metabolic Activation: HAMSTER, LIVER, S-9, AROCLOR 1254 (30%), Method: PREINCUBATION) “inactive; negative”; under setting [4], “inactive; negative”; under setting [5], “inactive; negative”; (Test System: AMES SALMONELLA TYPHIMURIUM, Strain/Indicator: TA100, Metabolic Activation: RAT, LIVER, S-9, AROCLOR 1254 (10%), Method: PREINCUBATION) “inactive; negative”; (Test System: AMES SALMONELLA TYPHIMURIUM, Strain/Indicator: TA100, Metabolic Activation: RAT, LIVER, S-9, AROCLOR 1254 (30%), Method: PREINCUBATION) “inactive; negative”. Also, the mutagenic call reads like this: under setting [6], “inactive; negative”; (Test System: AMES SALMONELLA TYPHIMURIUM, Strain/Indicator: TA100, Metabolic Activation: S-9, AROCLOR 1254, Method: STANDARD PLATE) “active; positive”; (Test System: AMES SALMONELLA TYPHIMURIUM, Strain/Indicator: TA1535, Metabolic Activation: HAMSTER, LIVER, S-9, AROCLOR 1254 (10 OR 30%), Method: PREINCUBATION) “inactive; negative”; (Test System: AMES SALMONELLA TYPHIMURIUM, Strain/Indicator: TA1535, Metabolic Activation: NONE, Method: PREINCUBATION) “inactive; negative”; under setting [7], “inactive; negative”; (Test System: AMES SALMONELLA TYPHIMURIUM, Strain/Indicator: TA1535, Metabolic Activation: RAT, LIVER, S-9, AROCLOR 1254 (10 OR 30%), Method: PREINCUBATION) “inactive; negative”. The mutagenic call was “inactive; negative” under setting [8]; “inactive; negative” under setting [9]; “inactive; negative” under setting [10]; “inactive; negative” (Test System: AMES SALMONELLA TYPHIMURIUM, Strain/Indicator: TA1538, Metabolic Activation: NONE, Method: STANDARD PLATE); “inactive; negative” (Test System: AMES SALMONELLA TYPHIMURIUM, Strain/Indicator: TA1538, Metabolic Activation: RAT, LIVER, S-9, AROCLOR 1254, Method: STANDARD PLATE); “inactive; negative” (Test System: CHO/HGPRT, Strain/Indicator: CHO-K1-BH4, Metabolic Activation: NONE, Method: PREINCUBATION). For the same compound, the mutagenic call by setting is: (Test System: CHO/HGPRT, Strain/Indicator: CHO-K1-BH4, Metabolic Activation: RAT, LIVER, S-9, AROCLOR 1254, Method: PREINCUBATION) “inactive; negative”; (Test System: E. COLI, Strain/Indicator: WP2, Metabolic Activation: NONE, Method: STANDARD PLATE) “inactive; negative”; (Test System: E. COLI, Strain/Indicator: WP2, Metabolic Activation: RAT, LIVER, S-9, AROCLOR 1254, Method: STANDARD PLATE) “inactive; negative”.

Consider `c1cc2c3oc3cc3ccc4c5oc5cc1c4c32`, for which the mutagenic call under setting [5] was “active; positive”.

On to `CCN(CC)CCCN`, for which the mutagenic call is “inactive; negative” under setting [1]; “inactive; negative” (Test System: AMES SALMONELLA TYPHIMURIUM, Strain/Indicator: TA98, Metabolic Activation: RAT, LIVER, S-9, PCB, Method: PREINCUBATION); “inactive; negative” under setting [4]; “inactive; negative” (Test System: AMES SALMONELLA TYPHIMURIUM, Strain/Indicator: TA100, Metabolic Activation: RAT, LIVER, S-9, PCB, Method: PREINCUBATION).

Regarding `C=CCn1cc2c3c(cccc31)C1C[C@@H](C)CN(C#N)[C@@H]1C2` (some centres not stated), the mutagenic call under setting [6] is “active; positive”.

With `Cc1ccc(C)c2c1ccc1ccccc12`, the mutagenic call under setting [2] is “inactive; negative”, the mutagenic call under setting [3] is “active; positive”, the mutagenic call under setting [5] was “inactive; negative” and the mutagenic call under setting [6] is “active; positive”.

In the case of `O=c1c(Cl)c(Cl)cnn1S(=O)(=O)c1ccc([N+](=O)[O-])cc1`, the mutagenic call runs as follows: under setting [2], “active; positive”; under setting [3], “inactive; negative”; under setting [5], “active; positive”; under setting [6], “active; positive”; under setting [7], “inactive; negative”; under setting [8], “active; positive”. Besides, the mutagenic call under setting [9] is “inactive; negative” and the mutagenic call under setting [10] is “inactive; negative”.
